One experiment deals with FLT3 (Homo sapiens (Human), UniProt P36888). Nature of the experiment: HTRF kinase inhibition assay, FLT3. Format: biochemical. As to conditions: ATP 2 μM. How it is done: (§1) The inhibition of the kinases TRKA (G667C), FLT3, and FLT3 (D835Y) by the compound N-[4-(6-fluoro-1H-2-benzimidazolyl)benzyl]-(E)-3-(pyridin-3-yl)acrylamide of the present disclosure (hereinafter referred to as compound A) was assessed using a homogeneous time-resolved fluorescence (HTRF) method based on biochemical levels.
(§2) HTRF is a technology used for detecting a test substance in a pure liquid phase system. Based on two major technologies: fluorescence resonance energy transfer (FRET) and time-resolved fluorescence (TRF), the generated fluorescence intensity was measured using a microplate reader, and the ratio 665 nm/620 nm reflected the extent to which compound A inhibited the activity of the kinases TRKA (G667C), FLT3, and FLT3 (D835Y).
(§3) a) Preparation of compound A or chidamide: The starting stock solution concentration of compound A or chidamide was 20 mM. The stock solution was serially diluted with the solvent 100% DMSO to 0.2 mM, which was 200 times the assay starting concentration.
(§4) b) A kinase reaction buffer Assay Buffer was prepared using the following formula: […]
(§5) 4) After the 384-well plate was centrifuged at 1000 rpm for 30 s and shaken for thorough mixing, the fluorescence intensities at 665 nm and 620 nm were measured using EnVision, and the TR-FRET ratio (665 nm/620 nm) was calculated. […]

The target of a further experiment is FLT3 (D835Y) (Homo sapiens (Human), UniProt P36888, D835Y). Nature of the experiment: HTRF kinase inhibition assay, FLT3 (D835Y). Format: biochemical. As to conditions: ATP 0.5 μM. How it is done: as §1, §2, §3, §4, §5
The next experiment deals with TRKA (G667C) (Homo sapiens (Human), UniProt P04629, G667C). As to the kind of experiment: HTRF kinase inhibition assay, TRKA (G667C). The format is biochemical. Conditions: ATP 0.5 μM. How it is done:
as §1, §2, §3, §4, §5

In another experiment the test system is SHP77 cells. Nature of the experiment: Viability of SHP77 cells (MTS assay). As to conditions: 72 h. The format is cell-based. How it is done: The SHP77 cell line was purchased from the American Type Culture Collection (ATCC) and cultured in an RPMI-1640 culture medium (Hyclone) containing 1% dual antibiotics (penicillin-streptomycin, Hyclone) and 10% fetal bovine serum (Gibco).
Compound A (N-[4-(6-Fluoro-1H-2-benzimidazolyl)benzyl]-(E)-3-(pyridin-3-yl)acrylamide) and chidamide were both from Shenzhen Chipscreen Biosciences Co., Ltd. The compound and chidamide were dissolved in dimethyl sulfoxide (DMSO, Shanghai Sangon, DN3039A) to prepare 20 mM working mother liquors, and the mother liquors were stored in a freezer at −20° C. before use. When in use, the mother liquors were diluted to prepare working solutions with corresponding final concentrations according to the needs of each experiment.
MTS solution: 42 mg of MTS Reagent Powder was placed in a light shielding container, and 21 mL of PBS was added. The mixture was gently stirred on a magnetic stirrer for 15 min until MTS was completely dissolved. The pH of the solution was measured. If the pH was higher than 6.5, the pH of the solution was adjusted to 6.5 with 1 M HCl. The solution was sterilized by filtration through a 0.2 μm filter and stored at −20° C. in a dark place.
PMS solution: […] of PMS was added to 21.7 mL of PBS to prepare a 150 μM stock solution, and the stock solution was sterilized by filtration, aliquoted, and stored at −20° C. in a dark place.
2.2. […]
2.4. […] After the plate was incubated for about 1 h, the absorbance at 490 nm in each well was measured using a microplate reader.
The reading of the BLANK well was OD490-BLANK (background value). The background value was subtracted from the readings of the wells to obtain the absorbance values of the administration wells, OD490-T, and the absorbance values of the control wells in which the drug concentration was 0, OD490-T0. With the cell viability of the control wells defined as 100%, the relative cell survival rate in each administration well was calculated using the formula: relative cell survival rate (%)=(OD490-T/OD490-T0)×100%.

Some results are limits rather than exact numbers.

Chain of TRKA (G667C) (P04629 33-796 G667C): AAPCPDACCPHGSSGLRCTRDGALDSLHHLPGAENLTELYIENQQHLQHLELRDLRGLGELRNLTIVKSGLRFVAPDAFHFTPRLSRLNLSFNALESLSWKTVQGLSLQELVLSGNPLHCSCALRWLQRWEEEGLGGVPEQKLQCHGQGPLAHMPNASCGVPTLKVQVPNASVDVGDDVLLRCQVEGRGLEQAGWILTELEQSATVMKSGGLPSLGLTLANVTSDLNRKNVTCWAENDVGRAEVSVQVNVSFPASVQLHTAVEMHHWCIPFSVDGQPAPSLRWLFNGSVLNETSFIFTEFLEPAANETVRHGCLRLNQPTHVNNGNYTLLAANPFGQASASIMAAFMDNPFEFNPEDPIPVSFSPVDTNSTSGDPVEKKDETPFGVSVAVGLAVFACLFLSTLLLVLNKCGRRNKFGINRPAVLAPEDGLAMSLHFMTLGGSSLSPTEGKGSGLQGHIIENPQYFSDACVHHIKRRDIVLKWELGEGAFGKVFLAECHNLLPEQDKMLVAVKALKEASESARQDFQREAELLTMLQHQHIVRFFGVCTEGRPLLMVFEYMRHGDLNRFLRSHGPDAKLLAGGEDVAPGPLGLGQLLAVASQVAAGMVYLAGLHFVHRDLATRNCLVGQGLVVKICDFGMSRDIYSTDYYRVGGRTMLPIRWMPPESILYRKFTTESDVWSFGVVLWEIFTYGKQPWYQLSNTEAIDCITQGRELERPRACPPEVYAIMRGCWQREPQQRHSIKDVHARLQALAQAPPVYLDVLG

As for `Nc1cc(F)ccc1NC(=O)c1ccc(CNC(=O)/C=C/c2cccnc2)cc1` [Chidamide, N-(2-amino-4-fluorophenyl)-4-[N-[(E)-3-(pyridin-3-yl)acryloyl]aminomethyl]benzamide], the IC50 on FLT3, on FLT3 (D835Y) and on TRKA (G667C) was > 1000 nM throughout. In the experiment on SHP77 cells (chidamide alone 0.5 μM), the “relative cell survival rate” value was 95.45±0.81%.

As to `O=C(/C=C/c1cccnc1)NCc1ccc(-c2nc3ccc(F)cc3[nH]2)cc1` [Compound A, N-[4-(6-fluoro-1H-2-benzimidazolyl)benzyl]-(E)-3-(pyridin-3-yl)acrylamide], the IC50 at FLT3 was 143 nM; against FLT3 (D835Y), 104 nM; against TRKA (G667C), 40.7 nM. Further, the “relative cell survival rate” value came to 77.43±1.18% with SHP77 cells (compound A alone 0.625 μM) and 44.09±6.59% in the experiment with SHP77 cells (compound A alone 1.25 μM).

The values above are taken from patent US20260070885A1, “TRKA (G667C) AND FLT3 TARGET INHIBITOR AND COMBINATION OF SAME WITH CHIDAMIDE” (SHENZHEN CHIPSCREEN BIOSCIENCES CO., LTD., priority 2022, published 2026).
